The record followed here is patent publication EP0234431A2, “5-Hydroxydihydrofusarubin, a process for its preparation and its use for the preparation of a medicament” (HOECHST JAPAN LIMITED, priority 1986, dated 1987).

In data set [1] the test system is mouse leukemia L1210 cells. Put plainly: Antitumor test, growth inhibition of L1210 cells in suspension. Format: cell-based. Particulars: growth of mouse leukemia L1210 cells in suspension (1 x 10⁶/mouse). The method, then:
An antitumor test was carried out for 5-hydroxy dihydrofusarubin. Half value (IC₅₀) inhibiting growth of mouse leukemia L1210 cells in suspension (1 x 10⁶/mouse) was as follows: […]

In data set [2] the test system is Candida albicans C-a-30. Nature of the data set: Antimicrobial test, agar plate-dilution method. Format: cell-based. To be noted: CA30. Here is the method:
(§1) Minimum inhibitory concentrations (MIC) of 5-hydroxydihydrofusarubin (I) against bacteria and fungi were determined by the agar plate-dilution method.

Data set [3] has as its system Streptococcus pneumoniae DP-1. Nature of the data set: Antimicrobial test, agar plate-dilution method. Type of data set: cell-based. To be noted: DP1. Here is the method: as §1
The test system of data set [4] is Staphylococcus aureus FDA209PJC1. Put plainly: Antimicrobial test, agar plate-dilution method. Format: cell-based. Here is the method: as §1
For data set [5], the system named is Bacillus subtilis ATCC 6633. Nature of the data set: Antimicrobial test, agar plate-dilution method. Particulars: ATCC6633. Type of data set: cell-based. Here is the method:
as §1

Data set [6] relates to Saccharomyces cereviciae ATCC 9763. Put plainly: Antimicrobial test, agar plate-dilution method. Format: cell-based. To be noted: ATCC9763. The method, then:
as §1

The nature of data set [7]: Solubility (physicochemical properties). Here is the method: Physicochemical properties of 5-hydroxydihydrofusarubin (I) produced by the present invention are as follows: • (1) Appearance: Orange plates • (2) Molecular formula: C₁₅H₁₈O₇ • (3) Molecular weight: 310 • (4) Melting point: 192-193°C • (5) Optical rotation: -171.4 (in 0.06% acetone solution) • (6) Ultraviolet and visible absorption spectrum: in 95% ethanol solution: λ max (nm) (logε) 211(4.17), 245(4.08), 284(3.97), 359(3.88) • (7) Infrared absorption spectrum: The infrared absorption spectrum measured in potassium bromide tablet is shown in Fig. 1. • (8) ¹H-NMR: ¹H-NMR measured in deuteriumchloroform is shown in Fig. 2. Chemical shifts were assigned as shown below. [formula] • (9) ¹³C-NMR: ¹³C-NMR measured in deuteriumchloroform is shown in Fig. 3. Chemical shifts were assigned as shown below. [formula] • (10) Solubility: Soluble in chloroform, methylene chloride, ethyl acetate, acetone, ethanol or methanol. […] Solubility in water: Insoluble under acidic or neutral condition, and soluble under alkaline condition.

≈ marks a conversion by molar mass, not a printed value.

In general, IC50 refers to the concentration needed to halve the response being measured. Usually MIC stands for the lowest concentration that inhibits growth of the organism. A lower MIC goes with a more susceptible organism. Turning to `COc1cc(O)c2c(c1O)C(O)C1CC(C)(O)OCC1C2=O` (stereo not shown) [5-Hydroxydihydrofusarubin], 9.4 ± 0.9 µg/mL (≈ 30.3 µM) corresponded to half-maximal inhibition in data set [1] (IC50). The MIC in data set [2] is 100 µg/mL (≈ 322 µM); in data set [3] it was 50 µg/mL (≈ 161 µM); in data set [4] it was 100 µg/mL (≈ 322 µM); in data set [5], 100 µg/mL (≈ 322 µM); in data set [6], 50 µg/mL (≈ 161 µM). The Solubility result is reported as “Soluble” in data set [7] (in chloroform, methylene chloride, ethyl acetate, acetone, ethanol or methanol) and “Sparingly soluble” in data set [7] (in hexane or petroleum ether). For the same molecule, the Solubility in water entry is reported as “Insoluble” in data set [7] (under acidic or neutral condition) and “soluble” in data set [7] (under alkaline condition).
